Data taken from US20190227072A1, “Biomarkers for Carcinogenesis and Uses Thereof” (GEORGETOWN UNIVERSITY, priority 2016, published 2019).
“Also recorded” adds a separate entry of the source.

How the values were obtained:
HepG2 cells = assay: DHHεdA formation in HepG2 cellular DNA after EH or AA treatment, LC-MS/MS-MRM; format: cell-based, human; conditions: 24 h
Procedure: HepG2 cells (#HB-8065, ATCC, Manassas, Va.) were grown in complete DMEM (#10-013, Corning Life Sciences, Tewksbury, Mass.) until 85-90% confluent. Cells were treated with a final concentration of 100 μM or 300 μM of either arachidonic acid (AA) or EH solubilized in 70% EtOH for 24 h. Cells were then scraped down in media and transferred to a centrifuge tube and spun for 3000 rpm for 5 min. The pellet was washed 2× with 1×PBS, centrifuging between washes. DNA was then isolated from the cells and prepared for LC-MS/MS-MRM, after enzymatic hydrolysis as described above.
DNA was isolated by a QIAGEN Blood and Cell Culture DNA Maxi Kit (#13362, QIAGEN Inc., Valencia, Calif.) using the protocol recommended by the manufacturer. For hydrolysis, dry DNA (50 to 1000 μg) was dissolved in 5 mM magnesium chloride and 0.5 mM GSH solution (1 mL per 1 mg of DNA), then 50 fmol of [^15N5]-DHHεdA 1,2 and 50 fmol of [^15N5]-DHHεdA 3,4 were added as internal standards. DNA was hydrolyzed by incubation with DNase I (1300 units per mg of DNA, #D4527-40KU, Sigma-Aldrich, St. Louis, Mo.) for 30 min at 37° C., followed by a second addition of DNase I (1300 units per mg of DNA) and incubation for an additional 10 min at 37° C. Finally, phosphodiesterase I (0.06 units per mg DNA, #P3243-1VL, Sigma-Aldrich, St. Louis, Mo.), alkaline phosphatase (380 units per mg DNA, #10 108 146 001, Roche Diagnostic GmbH, Mannheim, Germany) and adenosine deaminase (0.5 units, #LS009043, Worthington Biochemical Corporation, Lakewood, N.J.) were added and the sample was incubated for 60 min at 37° C. After hydrolysis, a small portion of the hydrolysate was saved for further T quantification, and the remaining sample was purified using Phenomenex Strata-X 33μ 30 mg/1 mL polymeric reverse phase solid phase extraction columns (#8B-S100-TAK, Phenomenex, Torrance, Calif.). Before loading, samples columns were washed by ACN (3×1 mL) and stabilized by 25 mM ammonium formate pH=4.00 (3×1 mL). After loading, DNA hydrolysate columns were washed by 2.5% ACN in 25 mM ammonium formate pH=4.00 (1×1 mL), 5% ACN in 25 mM ammonium formate pH=4.00 (1×1 mL), followed by DHHεdA collection by 30% ACN in 25 mM ammonium formate pH=4.00 (1×1 mL). The DHHεdA fraction was dried using a SpeedVac rotary concentrator, re-dissolved in 400 μL 1:1 water:ACN, transferred to HPLC vials, dried and kept at −20° C. Before quantification, samples were dissolved in 60 μL of water and 37 μL was injected on LC-MS.
Quantification was carried out on a SCIEX 6500 QTRAP triple quadrupole mass spectrometer (AB Sciex LLC, Framingham, Mass.) interfaced with a Waters ACQUITY UPLC liquid chromatography system equipped with Waters ACQUITY UPLC BEH C18 50×2.1 mm, 1.7 μm particle size column (Waters Corporation, Milford, Mass.). The separation of adducts was performed isocratically by eluting with 13.5% ACN, 1 mM ammonium formate buffer over 6.5 min using 0.5 mL/min flow rate at 40° C., followed by 100% ACN wash. The ESI source operated in positive mode. The MRM experiment was performed using ion transitions of 406.2-290.2 m/z (DHHεdA) and 411.2-295.1 m/z ([^15N5]-DHHεdA) with CE of 28 eV for quantification, and those of 406.2-160.1 m/z (DHHεdA) and 411.2-165.0 m/z ([^15N5]-DHHεdA) with a CE of 76 eV were used for structural confirmation. All other parameters were optimized to achieve maximum signal intensity. Calibration curves were constructed for two HPLC resolved peaks before each analysis using standard solutions of DHHεdA and [^15N5]-DHHεdA. A constant concentration of [^15N5]-DHHεdA (1 fmol/μL) was used with different concentrations of DHHεdA (3.3 amol/μL-65 fmol/μL) and analyzed using 37 μL injections by LC-MS/MS-MRM. The standard curves were linear in the range from 0.37 to 800 fmol of DHHεdA on column for both peaks (1/x weighting; r^2=0.9998 and r^2=0.9984 for both LC resolved pairs of DHHεdA stereoisomers 1,2 and 3,4 respectively). […]

[1] = test system: Primary human hepatocytes; assay: FACS detection of DHHεdA in nuclei of EH-treated primary human hepatocytes; format: cell-based; conditions: 300 μM EH
Procedure: Primary human hepatocytes (#HUFS1M, Lot#HUM4132, Triangle Research Labs, Durham, N.C.) were cultured in hepatocyte media (#5201, ScienCell Research Laboratories, San Diego, Calif.) until 85-90% confluent. Cells were then treated with a final concentration of 300 μM EH dissolved in 70% EtOH, added to the culture media. The cells were collected at the designated time points following EH treatment: 0, 4, 8, 12 and 24 h. The nuclei were extracted using Nuclei EZ Prep Nuclei Isolation Kit (#NUC-101, Sigma-Aldrich, St. Louis, Mo.) and fixed with 3.7% formaldehyde for 10 min. The nuclei were then prepared for FACS analysis using the method shown previously.
The geometric mean of the fluorescence intensity of Alexa Fluor 488-labeled DHHεdA positive cells was measured using FACS. The output values of triplicate control and EH treatment groups (see above) were averaged and the standard deviation was calculated using Excel. Additionally, a Student's t-test was performed to determine significance by comparing the triplicate values for the control group to those of the EH treated group for each individual time point of 4, 8, 12, and 24 h.

Xpa−/− mice [2] = assay: 32-week bioassay of Xpa−/− mice fed antioxidant diets, γ-OHPdG by LC-MS/MS; format: in vivo; conditions: for liver γ-OHPdG levels: antioxidant diet vs control diet, liver DNA, LC-MS/MS; for γ-OHPdG levels in the lungs: antioxidant diet, lung (non-target organ)
Excerpt: All of the mice were housed in a temperature-controlled, light-regulated space with 12-hour light and dark cycles and were given unrestricted access to food and water throughout the experiments. […] The animals were fed with AIN-76A powder diets obtained from Dyets, Inc. (Bethlehem, Pa.) at the age of 4 weeks; four types of diets (control, α-lipoic acid, Theaphenon E and vitamin-E) were used in this study. The only difference between the diets is the sucrose content to be replaced by the antioxidant (Table 1: the doses of the antioxidants, α-lipoic acid (2 g/kg), Theaphenon E (20 g/kg) and vitamin E (1.8 g/kg)), were selected according to recent studies, respectively. The nutrition for all the four diets was calculated within the range of 3694 to 3766 kcal/kg. […] The liver tissues were dissected and kept at −80° C. until usage for DNA isolation.
DNA (100-500 μg) was dissolved in 5 mM magnesium chloride (800 μL per mg DNA) and spiked with 100 fmol of [^13C10,^15N5]-γ-OHPdG and 50 fmol of [^13C10,^15N5]−/− OHPdG. Enzymatic hydrolysis was performed by incubation with DNase I (1300 units/mg DNA) at 37° C. for 30 min followed by a second addition of DNase I (1300 units/mg DNA). After an additional 10 min at 37° C., alkaline phosphatase (380 units/mg DNA), phosphodiesterase I (0.06 units/mg DNA) and adenosine deaminase (0.5 units) were added, and the mixture was incubated for 1 h. After digestion a small aliquot of hydrolysate was used for dG quantification and the remaining digest was purified by solid phase extraction (SPE) using polymeric C18, 30 mg/1 mL, Strata-X columns (Phenomenex, Inc., Torrance, Calif.). Prior to use, the columns were conditioned by ACN (3×1 mL) and 25 mM ammonium formate buffer pH=4 (3×1 mL). After sample loading, the columns were washed with 2.5% ACN in 25 mM ammonium formate buffer pH=4 (1×1 mL). Then, γ-OHPdG adducts were collected by eluting with 5% ACN in 25 mM ammonium formate buffer pH=4 (1×1 mL). Samples were dried over vacuum using a SpeedVac and kept at −80° C. Before quantification assay samples were reconstituted with 50 μl of water, and 37 μL of sample was injected onto LC-MS/MS.
Detection and quantification of γ-OHPdG adducts was carried on AB SCIEX 6500 QTrap triple quadrupole mass spectrometer (SCIEX, Framingham, Mass.) coupled with an ACQUITY UPLC liquid chromatography system (Waters Corporation, Milford, Mass.) equipped with 50×2.1 mm, 1.7 m particle size C18 column (Waters ACQUITY UPLC BEH C18). The separation of adducts was performed isocratically by eluting with 3% ACN, 1 mM ammonium formate buffer over 3.5 min using 0.5 mL/min flow rate at 40° C., followed by 100% ACN wash. The ESI source operated in positive mode. The multiple reaction monitoring (MRM) experiment was performed using ion transitions of 324.2-208.1 m/z (γ-OHPdG) and 339.2-218.1 m/z ([^13C10,^15N5]-γ-OHPdG) with a collision energy (CE) of 20 eV for quantification, and those of 324.2-190.1 m/z (γ-OHPdG) and 339.2-200.1 m/z ([^13C10,^15N5]-γ-OHPdG) with a CE of 47 eV for structural confirmation. All other parameters were optimized to achieve maximum signal intensity.

Xpa−/− mice [3] = assay: 72-week tumor bioassay of Xpa−/− mice fed antioxidant diets; format: in vivo; conditions: 72 weeks on diet, control diet 100%
Excerpt: C3H/HeN.Xpa^−/− mice were created by crossing C57/B6. Xpa^−/− mice with C3H/HeN mice. The resulting heterozygous mice were then backcrossed to C3H mice for five generations. Mice homogeneous for the Xpa-null allele on a C3H background were subsequently generated by brother-sister mating. All of the mice were housed in a temperature-controlled, light-regulated space with 12-hour light and dark cycles and were given unrestricted access to food and water throughout the experiments. […] The animals were fed with AIN-76A powder diets obtained from Dyets, Inc. (Bethlehem, Pa.) at the age of 4 weeks; four types of diets (control, α-lipoic acid, Theaphenon E and vitamin-E) were used in this study. The only difference between the diets is the sucrose content to be replaced by the antioxidant (Table 1: the doses of the antioxidants, α-lipoic acid (2 g/kg), Theaphenon E (20 g/kg) and vitamin E (1.8 g/kg)), were selected according to recent studies, respectively. The nutrition for all the four diets was calculated within the range of 3694 to 3766 kcal/kg. (n=6-7 for time dependent DNA adduct assay, n=18-19 for tumor bioassay after 72 weeks under different diets (see Table 4)). […] Xpa^−/− mice were fed with four types of diets (control, Theaphenon E, α-lipoic acid, and vitamin E) for 72 weeks.

## CCCCC/C=C\C/C=C\C/C=C\C/C=C\CCCC(=O)O [AA, arachidonic acid]
HepG2 cells; HepG2, low dose (100 μM)
  DHHεdA peak 1: bdl
  DHHεdA peak 2: bdl
  Total DHHεdA: bdl

## CCCCCC(O)C1OC1C=O (centres unmarked) [EH, 2,3-epoxy-4-hydroxynonanal]
HepG2 cells; human, 100 μM
  DHHεdA peak 1: 14.1 adducts/T × 10^9
  DHHεdA peak 2: 139.4 adducts/T × 10^9
  Total DHHεdA: 153.5 adducts/T × 10^9
HepG2 cells; human, 300 μM
  DHHεdA peak 1: 186.6 adducts/T × 10^9
  DHHεdA peak 2: 2043.8 adducts/T × 10^9
  Total DHHεdA: 2230.4 adducts/T × 10^9
[1]; 24 h
  cell death: less than 20%
[1]; 4, 8, 12 and 24 h vs control
  mean fluorescence intensity of DHHεdA in nuclei (FACS, 3C9C9): significant difference between control and EH treated cells for every time point

## vitamin E
Xpa−/− mice [2]
  liver γ-OHPdG levels: but not vitamin E, effectively decreased; also recorded: significant decrease
  γ-OHPdG levels in the lungs: no significant changes
Xpa−/− mice [3]
  HCC incidence: no significant effect

## O=C(O)CCCCC1CCSS1 (stereo not drawn) [α-lipoic acid]
Xpa−/− mice [2]
  liver γ-OHPdG levels: effectively decreased; also recorded: significant decrease
  γ-OHPdG levels in the lungs: no significant changes
Xpa−/− mice [3]
  HCC incidence: 65%
